The record followed here is PubChem BioAssay AID179 (DTP/NCI, 2004).

This assay has as its system CEM cells HIV-1 protection, formazan growth assay. In words: NCI AIDS Antiviral Assay. The conditions noted are these: for IC50: measured here: growth of uninfected CEM cells. The gist of the method: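 Human CEM cells, uninfected and HIV-1-infected, received five drug concentrations, and growth was read by soluble formazan assay. Compounds giving at least 50% protection were retested; reproducible 100% protection defined confirmed active.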

Active and inactive are the calls of the source.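 The calls were made as follows: active = compounds giving half or more protection of infected cells from virus-caused growth loss, again on retest; inactive = the rest.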 Bounds are passed on as bounds.

In the case of `COC(=O)/C=c1\sc2n(c1=O)CCCCN=2`, the EC50 (commonly the concentration that produces a half-maximal response) was > 417 µM and the IC50 (as a rule, the concentration at which inhibition is half-maximal) turned out to be 240 µM.
The corresponding values for `CCOC(=O)c1c(C(=O)OC)nc2n1-c1ccccc1OC2` are > 832 µM and 64.6 µM.
The like results for `Cn1c(N)cc[n+](C2CCC(CO)O2)c1=O` (centres undefined) (tested in a mixture with another compound) were, in that order, 9.12 µM and 708 µM.
As for `COC1/C=C/OC2(C)Oc3c(C)c(O)c4c(O)c(c(/C=N/N5CC(C)N(C(=O)c6ccccc6)C(C)C5)c(O)c4c3C2=O)NC(=O)C(C)=C/C=C/C(C)C(O)C(C)C(O)C(C)C(OC(C)=O)C1C` (centres undefined), the EC50 is > 200 µM and the concentration for half-maximal inhibition (IC50) is 6.46 µM.
The like results for `O=NC1C2CCC(C2)C1N=O.[Co].[c-]1[c-][c-][cH-][c-]1` (centres undefined) were, in that order, > 200 µM and 49 µM.
The like results for `CC1(c2cccc3ccccc23)OC(=O)c2cccc(F)c21` (centres undefined) were, in that order, > 36.3 µM and 5.89 µM.
For `CC1(Br)C(=O)NC(=O)N(C2CC(N=[N+]=[N-])C(CO)O2)C1N=[N+]=[N-]` (centres undefined), the outcome was active and the half-inhibitory concentration (IC50) worked out at 89.1 µM.
With `CN(C)P1(=O)OCC(C(C)(C)C)CN1c1ccccc1` (centres undefined), the EC50 was > 200 µM and the IC50 is > 200 µM.
In the case of `Clc1cc(Cl)c2c(Cl)cc(Cl)c3c2c1N=S=N3`, the result was inactive.
`C=CCOCn1cnc2c(=O)[nH]c(N)nc21`: the EC50 was > 200 µM and the 50% inhibitory concentration (IC50) is > 200 µM.
As for `CCCCCCCCCC1(N=[N+]=[N-])C(=O)c2ccccc2N(C)C1=O` (centres undefined), the EC50 is > 200 µM and the IC50 was 33.9 µM.
The like results for `Nc1nc(NCCCO)cc(=O)[nH]1` were, in that order, > 200 µM and > 200 µM.
The corresponding values for `O=C1CCN2CCCC1C2` (centres undefined) are > 1410 µM and 1290 µM.
The like results for `CCOC(=O)C1([N+](=O)[O-])[C@@H]2CCCC[C@@H]21` (some centres undefined) were, in that order, > 316 µM and > 316 µM.
`CC1=CCN(C2CC(C)C(=O)N2)C1=O` (centres undefined): the result was inactive.
`CCN(CC)CCNc1nc(N)c(C#N)c(C#N)c1C#N`: the EC50 is > 200 µM and the IC50 worked out at 174 µM.
Regarding `O=C(O)/C(Cl)=C(\Cl)C(=O)Nc1ccc(Cl)c(Cl)c1Cl`, the outcome was inactive.
On to `[N-]=[N+]=NCCOCn1ccc(=O)[nH]c1=O`, for which the EC50 was > 200 µM and the IC50 was > 200 µM.
Take `O=C(CCNC(=O)OCc1ccccc1)OCCCNC(=O)OCc1ccccc1`: the EC50 was > 200 µM and the IC50 was > 200 µM.
As for `N#CC(c1cc2c(cc1Br)OCO2)N1CCOCC1` (centres undefined), the EC50 was > 200 µM and the 50% inhibitory concentration (IC50) came out at 9.77 µM.
Consider `O=C(CCC(=O)Nc1ccc(Cl)cc1)CC(=O)c1ccc2ccccc2c1`, for which the EC50 was > 245 µM and the IC50 was > 245 µM.
Turning to `COC(=O)C(=O)C(C(=O)C(=O)Nc1ccc(Cl)cc1Cl)c1nc2ccc(Cl)cc2[nH]c1=O` (centres undefined), the EC50 is > 38 µM and the IC50 is > 38 µM.
As to `Nc1nc(-c2ccccc2)nc(N)c1N=O`, the EC50 was > 200 µM and the half-inhibitory concentration (IC50) turned out to be 2.57 µM.
The like results for `c1ccc(CC[P+](c2ccccc2)(c2ccccc2)c2ccccc2)cc1` were, in that order, > 200 µM and 1.29 µM.
Turning to `Nc1ccc2cc(S(=O)(=O)O)c(N=Nc3ccc(-c4ccc(N=Nc5c(S(=O)(=O)O)cc6cc(S(=O)(=O)O)c(N=Nc7cccc([N+](=O)[O-])c7)c(N)c6c5O)cc4)cc3)c(O)c2c1`, the result was active.
`Cc1ccc(S(=O)(=O)SC(C)(C)C)cc1`: the EC50 is > 29.5 µM and the half-inhibitory concentration (IC50) was found to be 9.33 µM.
For `COc1ccccc1C(=O)Nc1ccc(Cl)c(C(=O)OC(C)C)c1`, the outcome was active.
Same read-out and setting: with `COC(=O)/C=C/C=C/c1ccc2c(c1OC)C(=O)c1ccccc1C2=O` the entry was “inactive”.
As to `CCOP(=O)(OCC)OC1C=CC2CCC1C2` (centres undefined), the EC50 is > 191 µM and the IC50 was > 191 µM.
For `C/C([O-])=c1\c(C)nn2ccc[n+]12`, the EC50 was > 309 µM and the IC50 was > 309 µM.
